Results published in US9302999B2, “Substituted triazoles as herbicides” (E. I. DU PONT DE NEMOURS AND COMPANY, priority 2012, dated 2016).
Where two headings read alike, the source gives them in different places.

Key:
Format in all cases: in vivo
[1] = test system: common (oilseed) sunflower (Helianthus annuus); assay: Test C pre-/postemergence: sunflower; conditions: Preemergence
In short: (§1)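 Preemergence on seeds in loam/sand, postemergence on 2–18 cm (1–4-leaf) plants in peat-based medium; compounds in non-phytotoxic solvent with surfactant. After 13–15 days in greenhouse, visual rating versus controls, 0 (no effect) to 100 (complete control).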

[2] = test system: lambsquarters (Chenopodium album); assay: Test C pre-/postemergence: lambsquarters
Text: Seeds of plant species selected from blackgrass (Alopecurus myosuroides), bromegrass, downy (downy bromegrass, Bromus tectorum), foxtail, green (green foxtail, Setaria viridis), ryegrass, Italian (Italian ryegrass, Lolium multiflorum), winter wheat (Triticum aestivum), wild oat (Avena fatua), galium (catchweed bedstraw, Galium aparine), bermudagrass (Cynodon dactylon), surinam grass (Brachiaria decumbens), cocklebur (common cocklebur, Xanthium strumarium), corn (Zea mays), large crabgrass (Digitaria sanguinalis), woolly cupgrass (Eriochloa villosa), foxtail, giant (giant foxtail, Setaria faberii), goosegrass (Eleusine indica), johnsongrass (Sorghum halepense), kochia (Kochia scoparia), lambsquarters (Chenopodium album), morningglory (Ipomoea coccinea), nightshade (eastern black nightshade, Solanum ptycanthum), nutsedge, yellow (yellow nutsedge, Cyperus esculentus), pigweed (Amaranthus retroflexus), ragweed (common ragweed, Ambrosia elation), soybean (Glycine max), common (oilseed) sunflower (Helianthus annuus), Russian thistle (Salsola kali) and velvetleaf (Abutilon theophrasti) were planted into a blend of loam soil and sand and treated preemergence with test chemicals formulated in a non-phytotoxic solvent mixture which included a surfactant.
At the same time, plants selected from these crop and weed species and also barley (winter barley, Hordeum vulgare), canarygrass (Phalaris minor), chickweed (common chickweed, Stellaria media) windgrass (Apera spica-venti) and deadnettle (henbit deadnettle, Lamium amplexicaule) were planted in pots containing Redi-Earth® planting medium (Scotts Company, 14111 Scottslawn Road, Marysville, Ohio 43041) comprising spaghnum peat moss, vermiculite, wetting agent and starter nutrients and treated with postemergence applications of test chemicals formulated in the same manner. Plants ranged in height from 2 to 18 cm (1- to 4-leaf stage) for postemergence treatments.
Treated plants and controls were maintained in a greenhouse for 13 to 15 days, after which time all species were compared to controls and visually evaluated. Plant response ratings, summarized in Table C, are based on a scale of 0 to 100 where 0 is no effect and 100 is complete control. A dash (-) response means no test result.

[3] = test system: wheat (Triticum aestivum); assay: Test A pre-/postemergence: wheat; conditions: for plant injury at 125 g/ha / plant injury at 500 g/ha: Triticum aestivum, 240 h
In short: (§2)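 Each species received preemergence soil-directed spraying and, at the same time, postemergence treatment of seedlings 2–10 cm tall. Formulation: non-phytotoxic solvent mixture including surfactant. Response assessed visually about ten days on, relative to untreated controls, 0–100 scale.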

[4] = test system: pigweed (Amaranthus retroflexus); assay: Test A pre-/postemergence: pigweed; conditions: for pest or weed control at 125 g/ha / pest or weed control at 500 g/ha: Amaranthus retroflexus, 240 h
In short: as §2

[5] = test system: bermudagrass (Cynodon dactylon); assay: Test C pre-/postemergence: bermudagrass
In short: as §1

[6] = test system: corn (Zea mays); assay: Test A pre-/postemergence: corn
In short: as §2

[7] = test system: ragweed (common ragweed, Ambrosia elation); assay: Test C pre-/postemergence: ragweed
In short: as §1

[8] = test system: morningglory (Ipomoea coccinea); assay: Test C pre-/postemergence: morningglory
In short: as §1

[9] = 31 g ai/ha, scale of 0 to 100, 0 is no effect, 100 is complete control
[10] = 62 g ai/ha, scale of 0 to 100, 0 is no effect, 100 is complete control
[11] = 125 g ai/ha, scale 0 to 100, 0 no effect, 100 complete control
[12] = Postemergence, 16 g ai/ha, scale 0 to 100, 0 no effect, 100 complete control
[13] = Postemergence, 31 g ai/ha, scale 0 to 100 (0 no effect, 100 complete control)
[14] = Postemergence, 62 g ai/ha, scale 0 to 100 (0 no effect, 100 complete control)
[15] = Postemergence, 125 g ai/ha, scale 0 to 100, 0 no effect, 100 complete control
[16] = Preemergence, 16 g ai/ha, scale 0 (no effect) to 100 (complete control)
[17] = Preemergence, 31 g ai/ha, scale of 0 to 100, 0 is no effect, 100 is complete control
[18] = Preemergence, 62 g ai/ha, scale of 0 to 100, 0 is no effect, 100 is complete control
[19] = Preemergence, 125 g ai/ha, scale 0 to 100, 0 no effect, 100 complete control
[20] = Preemergence, 62 g ai/ha, scale 0 to 100, 0 no effect, 100 complete control
[21] = Postemergence, 250 g ai/ha, scale 0 to 100
[22] = Preemergence, 250 g ai/ha, scale 0 to 100, 0 no effect, 100 complete control
[23] = Postemergence, 125 g ai/ha, 0 to 100 scale, 0 is no effect, 100 is complete control
[24] = Postemergence, 500 g ai/ha, visual rating on 0 to 100 scale (0 no effect, 100 complete control), approximately ten days
[25] = Preemergence, 125 g ai/ha, 0 to 100 scale (0 no effect, 100 complete control)
[26] = Preemergence, 500 g ai/ha, 0 to 100 scale, 0 is no effect, 100 is complete control

## COc1nn(-c2ccc(C(F)(F)F)cc2)nc1Cc1ccnc(C(F)(F)F)c1 [Compound 15, 4-[[5-methoxy-2-[4-(trifluoromethyl)phenyl]-2H-1,2,3-triazol-4-yl]methyl]-2-(trifluoromethyl)pyridine]
[1]; 16 g ai/ha, scale 0 (no effect) to 100 (complete control)
  Plant response rating, Sunflower: 0
[1]; [9]
  Plant response rating, Sunflower: 0
[1]; [10]
  Plant response rating, Sunflower: 0
[1]; [11]
  Plant response rating, Sunflower: 25
[2]; [12]
  Plant response rating, Lambsquarters: 100
[2]; [13]
  Plant response rating, Lambsquarters: 100
[2]; [14]
  Plant response rating, Lambsquarters: 100
[2]; [15]
  Plant response rating, Lambsquarters: 100
[2]; [16]
  Plant response rating, Lambsquarters: 95
[2]; [17]
  Plant response rating, Lambsquarters: 100
[2]; [18]
  Plant response rating, Lambsquarters: 100
[2]; [19]
  Plant response rating, Lambsquarters: 100
[3]; post-emergence, Postemergence, 125 g ai/ha, 0 to 100 scale, 0 is no effect, 100 is complete control, read-out: Wheat plant response rating
  plant injury at 125 g/ha: 30%
[3]; post-emergence, Postemergence, 500 g ai/ha, visual rating on 0 to 100 scale (0 no effect, 100 complete control), approximately ten days, read-out: Wheat plant response rating
  plant injury at 500 g/ha: 50%
[3]; pre-emergence, Preemergence, 125 g ai/ha, 0 to 100 scale (0 no effect, 100 complete control), read-out: Plant response rating, Wheat
  plant injury at 125 g/ha: 30%
[3]; pre-emergence, Preemergence, 500 g ai/ha, 0 to 100 scale, 0 is no effect, 100 is complete control, read-out: Plant response rating, Wheat
  plant injury at 500 g/ha: 50%
[4]; post-emergence, Postemergence, 125 g ai/ha, 0 to 100 scale, 0 is no effect, 100 is complete control, read-out: Pigweed plant response rating
  pest or weed control at 125 g/ha: 100%
[4]; post-emergence, Postemergence, 500 g ai/ha, visual rating on 0 to 100 scale (0 no effect, 100 complete control), approximately ten days, read-out: Pigweed plant response rating
  pest or weed control at 500 g/ha: 100%
[4]; pre-emergence, Preemergence, 125 g ai/ha, 0 to 100 scale (0 no effect, 100 complete control), read-out: Plant response rating, Pigweed
  pest or weed control at 125 g/ha: 100%
[4]; pre-emergence, Preemergence, 500 g ai/ha, 0 to 100 scale, 0 is no effect, 100 is complete control, read-out: Plant response rating, Pigweed
  pest or weed control at 500 g/ha: 100%
[5]; [12]
  Plant response rating, Bermudagrass: 5
[5]; [13]
  Plant response rating, Bermudagrass: 5
[5]; [14]
  Plant response rating, Bermudagrass: 15
[5]; [15]
  Plant response rating, Bermudagrass: 35
[5]; [16]
  Plant response rating, Bermudagrass: 100
[5]; [17]
  Plant response rating, Bermudagrass: 100
[5]; [20]
  Plant response rating, Bermudagrass: 100
[5]; [19]
  Plant response rating, Bermudagrass: 100
[6]; Zea mays, post-emergence, 240 h, Postemergence, 125 g ai/ha, 0 to 100 scale, 0 is no effect, 100 is complete control, read-out: Corn plant response rating
  plant injury at 125 g/ha: 30%
[6]; Zea mays, post-emergence, 240 h, Postemergence, 500 g ai/ha, visual rating on 0 to 100 scale (0 no effect, 100 complete control), approximately ten days, read-out: Corn plant response rating
  plant injury at 500 g/ha: 50%
[6]; Zea mays, pre-emergence, 240 h, Preemergence, 125 g ai/ha, 0 to 100 scale (0 no effect, 100 complete control)
  Corn plant response rating (crop injury, 0 = no effect, 100 = complete kill) at 125 g/ha: 20%
[6]; Zea mays, pre-emergence, 240 h, Preemergence, 500 g ai/ha, 0 to 100 scale, 0 is no effect, 100 is complete control
  Corn plant response rating (crop injury, 0 = no effect, 100 = complete kill) at 500 g/ha: 50%
[7]; [12]
  Plant response rating, Ragweed: 45
[7]; [13]
  Plant response rating, Ragweed: 60
[7]; [14]
  Plant response rating, Ragweed: 60
[7]; [15]
  Plant response rating, Ragweed: 70
[8]; [12]
  Plant response rating, Morningglory: 45
[8]; [13]
  Plant response rating, Morningglory: 75
[8]; [14]
  Plant response rating, Morningglory: 75
[8]; [15]
  Plant response rating, Morningglory: 90
[8]; [16]
  Plant response rating, Morningglory: 5
[8]; [17]
  Plant response rating, Morningglory: 5
[8]; [18]
  Plant response rating, Morningglory: 15
[8]; [19]
  Plant response rating, Morningglory: 45

## Cc1nn(-c2ccc(C(F)(F)F)cn2)nc1Oc1ccnc(C(F)(F)F)c1 [Compound 23]
[1]; [9]
  Plant response rating, Sunflower: 0
[1]; [10]
  Plant response rating, Sunflower: 0
[1]; [11]
  Plant response rating, Sunflower: 0
[1]; 250 g ai/ha, scale 0 to 100, 0 no effect, 100 complete control
  Plant response rating, Sunflower: 0
[2]; [13]
  Plant response rating, Lambsquarters: 40
[2]; [14]
  Plant response rating, Lambsquarters: 40
[2]; [15]
  Plant response rating, Lambsquarters: 98
[2]; [21]
  Plant response rating, Lambsquarters: 98
[2]; [17]
  Plant response rating, Lambsquarters: 95
[2]; [18]
  Plant response rating, Lambsquarters: 98
[2]; [19]
  Plant response rating, Lambsquarters: 98
[2]; [22]
  Plant response rating, Lambsquarters: 100
[3]; [23]
  Wheat plant response rating: 20
[3]; [24]
  Wheat plant response rating: 50
[3]; [25]
  Plant response rating, Wheat: 0
[3]; [26]
  Plant response rating, Wheat: 70
[4]; [23]
  Pigweed plant response rating: 100
[4]; [24]
  Pigweed plant response rating: 100
[4]; [25]
  Plant response rating, Pigweed: 100
[4]; [26]
  Plant response rating, Pigweed: 100
[5]; [13]
  Plant response rating, Bermudagrass: 5
[5]; [14]
  Plant response rating, Bermudagrass: 10
[5]; [15]
  Plant response rating, Bermudagrass: 15
[5]; [21]
  Plant response rating, Bermudagrass: 30
[5]; [17]
  Plant response rating, Bermudagrass: 100
[5]; [20]
  Plant response rating, Bermudagrass: 100
[5]; [19]
  Plant response rating, Bermudagrass: 100
[5]; [22]
  Plant response rating, Bermudagrass: 100
[6]; [23]
  Corn plant response rating: 30
[6]; [24]
  Corn plant response rating: 50
[6]; [25]
  Plant response rating, Corn: 10
[6]; [26]
  Plant response rating, Corn: 40
[7]; [13]
  Plant response rating, Ragweed: 10
[7]; [14]
  Plant response rating, Ragweed: 10
[7]; [15]
  Plant response rating, Ragweed: 20
[7]; [21]
  Plant response rating, Ragweed: 20
[7]; [17]
  Plant response rating, Ragweed: 5
[7]; [18]
  Plant response rating, Ragweed: 20
[7]; [19]
  Plant response rating, Ragweed: 20
[7]; [22]
  Plant response rating, Ragweed: 60
[8]; [13]
  Plant response rating, Morningglory: 70
[8]; [14]
  Plant response rating, Morningglory: 70
[8]; [15]
  Plant response rating, Morningglory: 90
[8]; [21]
  Plant response rating, Morningglory: 90
[8]; [17]
  Plant response rating, Morningglory: 20
[8]; [18]
  Plant response rating, Morningglory: 20
[8]; [19]
  Plant response rating, Morningglory: 100
[8]; [22]
  Plant response rating, Morningglory: 100
